In US6627734B1 (dated 2003):

System: expressed full length clones containing these insertions (KOR-3a, KOR-3b, KOR-3c)
Assay: Preliminary binding of [3H]naloxone benzoylhydrazone to expressed full length KOR-3 splice variant clones
Parameters: species or system mouse
Conditions: preliminary studies; expressed full length clones with mini-exon insertions (KOR-3a, KOR-3b, KOR-3c); radioligand

C=CCN1CC[C@]23c4c5ccc(O)c4O[C@H]2/C(=N/NC(=O)c2ccccc2)CC[C@@]3(O)[C@H]1C5 [[^3H]naloxone benzolhydrazone]
binding of the kappa3 ligand by the expressed full length clones: quite well
